Here are results for three molecules from patent publication US20100063085A1, “METHOD OF TREATING LEARNING IMPAIRMENT IN DOWN'S SYNDROME SUBJECTS” (University Court of The University of Dundee, priority 2008, published 2010).

Like-named read-outs stand apart in the source and are kept apart here.

The target in one experiment is PKBb (Homo sapiens, UniProt P31751, S474D). As to the kind of experiment: PKBb 33P kinase assay. In kind it is biochemical. The following applies: read-out: PKBb activity as percentage of control without inhibitor. How it is done: (§1) All assays (25.5 μl) were carried out at room temperature (21° C.) and were linear with respect to time and enzyme concentrations under the conditions used. Assays were performed for 30 minutes except assays for LCK and PKB which were performed for 15 minutes using Multidrop Micro reagent dispensers (Thermo Electron Corporation, Waltham, Mass. 02454, USA) in a 96-well format. The concentration of […] [γ-^33P] ATP (800 cpm/pmol) in the assays was one of three concentrations (5, 20 or 50 μM) in order to be at or below Km for ATP for the enzyme. Assays were initiated with MgATP and stopped by addition of 5 μl of 0.5M orthophosphoric acid. Assays were then harvested onto P81 filterplates using a unifilter harvester (PerkinElmer, Boston, Mass. 02118, USA), with a wash buffer of 50 mM orthophosphoric acid. Filterplates were then air dried overnight. 10 μl of Microscint O was added per well prior to counting for radioactivity.
The following kinases were assayed against the substrates indicated. Aurora B was assayed against the substrate peptide […] (300 μM), ERK8 and MST-2 were both assayed against MBP (0.33 mg/ml). IKKβ was assayed against the substrate peptide […] (300 μM), JNK3 was assayed against 3 μM ATF2[19-96]. MAPKAP-K3 and PKD1 were both assayed against […] (30 μM), MARK3 was assayed against CHKtide ([…]) substrate peptide (300 μM). MNK1 and MNK2 were both assayed against eIF4E protein (0.5 mg/ml). NEK7 was assayed against […] (300 μM), PIM2 was assayed against […] (300 μM), ΔPH PKBβ-S474D was assayed against Crosstide (30 μM), PLK1 was assayed against […] (300 μM). PRK2 was assayed against Long S6 peptide, […] (30 μM), RSK2 was assayed against […] (30 μM), SRC was assayed against cdc2 peptide, […], (300 μM) and SRPK1 was assayed against peptide […] (300 μM). All enzymes were diluted in 50 mM Tris/HCl pH 7.5, 0.1 mM EGTA, 1 mg/ml BSA, 0.1% β-mercaptoethanol buffer and assayed in an incubation containing 50 mM Tris/HCl pH7.5, 0.1 mM EGTA, 0.1% β-mercaptoethanol, CAMK-1 (5-20 mU) diluted in 50 mM Tris/HCl pH 7.5, 0.1 mM EGTA, 1 mg/ml BSA, 0.1% β-mercaptoethanol is assayed against substrate peptide […] in an incubation containing 50 mM Tris/HCl pH 7.5, 0.1 mM EGTA, 0.5 mM CaCl2, 0.3 μM calmodulin, 0.1% β-mereaptoethanol, 300 μM substrate peptide, 10 mM magnesium acetate and 0.05 mM [^33P-γ-ATP] (500-1000 cpm/pmole). EF2K (5-20 mU) diluted in 50 mM Hepes pH 6.6, 0.1% β-mercaptoethanol, 1 mg/ml BSA is assayed against a substrate peptide […] in an incubation containing 50 mM Hepes pH 6.6, 0.2 mM CaCl2, 0.3 μM Calmodulin, 0.05% b-mercaptoethanol, 300 μM substrate peptide, 10 mM magnesium acetate and 0.05 mM [^33P-γ-ATP] (500-1000 cpm/pmole).
ΔPH-PKBbeta-S474D (5-20 mU diluted in 50 mM Tris pH 7.5, 0.1 mM EGTA, 0.1% β-mercaptoethanol, 1 mg/ml BSA) is assayed against a modified Crosstide peptide ([…]) in a final volume of 25.5 μl containing 50 mM Tris pH 7.5, 0.05% β-mercaptoethanol, 30 μM substrate peptide, 10 mM magnesium acetate and 0.05 mM [^33P- γATP] (50-1000 cpm/pmole) and incubated for 30 min at room temperature.

For the next experiment, the target named is T1, SGK (Homo sapiens, UniProt O00141).
T1 sequence (O00141 1-431): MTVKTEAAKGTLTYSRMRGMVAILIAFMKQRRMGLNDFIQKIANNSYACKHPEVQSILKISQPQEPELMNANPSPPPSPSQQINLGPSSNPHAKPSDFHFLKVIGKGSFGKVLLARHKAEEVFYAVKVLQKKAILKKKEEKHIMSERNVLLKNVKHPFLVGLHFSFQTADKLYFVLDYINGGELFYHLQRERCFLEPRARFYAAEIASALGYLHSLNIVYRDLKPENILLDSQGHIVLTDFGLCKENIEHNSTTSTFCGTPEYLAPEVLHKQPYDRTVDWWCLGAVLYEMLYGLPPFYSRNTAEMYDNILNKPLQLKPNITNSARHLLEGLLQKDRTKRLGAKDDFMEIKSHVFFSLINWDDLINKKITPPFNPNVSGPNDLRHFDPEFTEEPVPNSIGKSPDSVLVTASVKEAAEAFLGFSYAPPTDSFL
As to the kind of experiment: SGK 33P kinase assay. The following applies: read-out: SGK activity as percentage of control without inhibitor. In kind it is biochemical. How it is done:
as §1
MKK1, JNK/SAPK1c, SAPK2a/p38, SAPK2b/p38β2, SAPK3/p38γ, SAPK4/p38δ, MAPK2/ERK2, MAPKAP-K1β, MAPKAP-K2, MSK1, PRAK, PKA, PKCα, PDK1, SGK, p70S6K, GSK3β, ROCK-II, PRK2, AMPK, CHK1, CHK2, CK2, PHK, LCK, were assayed according to Davies et al., (Davies, S. P., Reddy, H., Caivano, M. and Cohen, P. Biochem. J. 351, 95-105, 2000.
CSK and CDK2/cyclinA, were assayed according to Bain et al. (Bain J, McLauchlan H, Elliott M, Cohen P. Biochem J. 371, 199-204, 2003., except that ATP concentrations were either 5, 20 or 50 micromolar so that they were at or below the Km for ATP. The ATP concentrations used were as follows, 5 μM for assays of MKK1, SAPK3, SAPK4, GSK3β, PRK2 CK2 20 μm for assays of JNK, SAPK2β, MAPKAP-K2, MSK1, PRAK, PKA, […], PDK1, SGK, p70S6K, ROCK-II, CHK1, CHK2, CSK, CDK2, and 50 μM for assays of SAPK2a, MAPK2/ERK2, AMPK, LCK, PHK and MAPKAP-K1β.

PKBb, sequence (P31751 120-481 S474D limits assumed): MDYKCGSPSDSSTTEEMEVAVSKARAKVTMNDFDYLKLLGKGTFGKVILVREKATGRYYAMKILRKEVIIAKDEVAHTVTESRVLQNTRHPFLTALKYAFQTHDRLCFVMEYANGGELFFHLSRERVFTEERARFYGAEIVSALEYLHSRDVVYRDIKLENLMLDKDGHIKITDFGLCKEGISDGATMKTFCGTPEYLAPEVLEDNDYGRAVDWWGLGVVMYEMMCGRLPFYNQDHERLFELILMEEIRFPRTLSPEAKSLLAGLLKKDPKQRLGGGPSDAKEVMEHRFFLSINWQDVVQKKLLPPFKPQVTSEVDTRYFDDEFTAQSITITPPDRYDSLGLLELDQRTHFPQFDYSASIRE

As to `COc1ccc2c(c1)[nH]c1c(C)nccc12` [Harmine], the remaining activity at 1 µM at PKBb stood at 94%; on SGK, 66%. Besides, the remaining activity at 10 µM was 101% on PKBb and 62% on SGK.
Consider `CC1=NCCc2c1[nH]c1cc(O)ccc21` [Harmalol], for which the remaining activity at 1 µM is 103% on PKBb (inhibitor 1 μM) and 62% on SGK (inhibitor 1 μM). Also, the results for the remaining activity at 10 µM at PKBb (inhibitor 10 μM) and at SGK (inhibitor 10 μM) were 77% and 45%, respectively.
Taken in the same sequence, the figures for `COc1ccc2c3c([nH]c2c1)C(C)=NCC3` [Harmaline] were 97%, 14%, 96% and 84%.
